Experimental data as given in patent US20240058315A1, “Pyridine and Pyrazine derivative for the Treatment of CF, COPD, and Bronchiectasis” (NOVARTIS AG, priority 2019, published 2024).

molecular target: ΔF508-CFTR (Homo sapiens (Human), UniProt P13569, DEL508-508); experiment: CFTR potentiator assays (membrane potential, IonWorks Quattro, Ussing chamber ion transport); format: cell-based; conditions: CFTR EC50 in 'the data measurements described above'; which of the potentiator assays is not stated
Excerpt: CFTR activity can be quantified by measuring the transmembrane potential. The means for measuring the transmembrane potential in a biological system can employ a number of methods including electrophysiological and optical fluorescence-based membrane potential assays.
The optical membrane potential assay utilises a negatively charged potentiometric dye, such as the FLIPR membrane potential dye (FMP) (see Baxter D F, Kirk M, Garcia A F, Raimondi A, Holmqvist M H, Flint K K, Bojanic D, Distefano P S, Curtis R, Xie Y. ‘A novel membrane potential-sensitive fluorescent dye improves cell-based assays for ion channels.’ J Biomol Screen. 2002 February; 7(1):79-85) which when extracellular is bound to a quenching agent.
Upon cellular depolarisation the negatively charged dye redistributes to the intracellular compartment, unbinding from the membrane impermeant quench agent, yielding an increase in fluorescence. This change in fluorescence is proportional to the change in transmembrane potential which can result from the activity of CFTR. The changes in fluorescence can be monitored in real time by an appropriately equipped fluorescence detector such as the FLIPR (fluorometric imaging plate reader) in 96 or 384-well microtitre plates.
Chinese hamster ovary (CHO) cells stably expressing the AF508-CFTR channel were used for membrane potential experiments. Cells were maintained at 37° C. in 5% v/v CO2 at 100% humidity in Modified Eagles medium (MEM) supplemented with 8% v/v foetal calf serum, 100 μg/ml methotrexate and 100 U/ml penicillin/streptomycin. Cells were grown in 225 cm^2 tissue culture flasks. For membrane potential assays cells were seeded into 96 well plates at 40,000 cells per well, allowed to adhere and then maintained at 26° C. for 48 h to facilitate channel insertion.
The membrane potential screening assay utilised a low chloride ion containing extracellular solution (˜5 mM) combined with a double addition protocol. The first addition was of buffer with or without test compound followed 5 minutes later by an addition of forskolin (1-20 μM)—this protocol favours maximum chloride efflux in response to ΔF508-CFTR activation. The ΔF508-CFTR mediated chloride ion efflux leads to a membrane depolarisation which is optically monitored by the FMP dye.
Low chloride extracellular (mM): 120 Na-gluconate, 1.2 CaCl2), 3.3 KH2PO4, 0.8 K2HPO4, 1.2 MgCl2, 10.0 D-glucose, 20.0 HEPES, pH 7.4 with NaOH FMP dye: made up as per manufacturers' instructions in low chloride extracellular solution detailed above, at 10× final concentration, and stored as 1 mL aliquots at −20° C.
CFTR activity can also be quantified electrophysiologically using the whole-cell configuration of the patch clamp technique (Hamill et al Pflugers Archive 1981). This assay directly measures the currents associated with chloride flow through CFTR channels whilst either maintaining or adjusting the transmembrane voltage. This assay can use either single glass micropipettes or parallel planar arrays to measure CFTR activity from native or recombinant cell systems. Currents measured using parallel planar arrays can be quantified using an appropriately equipped instrument such as the IonWorks Quattro (Molecular Devices) or the Qpatch (Sophion). The Quattro system can measure CFTR currents from either a single cell per recording well (HT configuration) or alternatively from a population of 64 cells per well (Population Patch Clamp PPC) (Finkel A, Wittel A, Yang N, Handran S, Hughes J, Costantin J. ‘Population patch clamp improves data consistency and success rates in the measurement of ionic currents.’ J Biomol Screen. 2006 August; 11(5):488-96).
Chinese hamster ovary (CHO) cells stably expressing the ΔF508-CFTR channel were used for IonWorks Quattro experiments. […]

Sequence of ΔF508-CFTR (P13569 other isoform, or with tags, fused parts or gaps del F508-F508): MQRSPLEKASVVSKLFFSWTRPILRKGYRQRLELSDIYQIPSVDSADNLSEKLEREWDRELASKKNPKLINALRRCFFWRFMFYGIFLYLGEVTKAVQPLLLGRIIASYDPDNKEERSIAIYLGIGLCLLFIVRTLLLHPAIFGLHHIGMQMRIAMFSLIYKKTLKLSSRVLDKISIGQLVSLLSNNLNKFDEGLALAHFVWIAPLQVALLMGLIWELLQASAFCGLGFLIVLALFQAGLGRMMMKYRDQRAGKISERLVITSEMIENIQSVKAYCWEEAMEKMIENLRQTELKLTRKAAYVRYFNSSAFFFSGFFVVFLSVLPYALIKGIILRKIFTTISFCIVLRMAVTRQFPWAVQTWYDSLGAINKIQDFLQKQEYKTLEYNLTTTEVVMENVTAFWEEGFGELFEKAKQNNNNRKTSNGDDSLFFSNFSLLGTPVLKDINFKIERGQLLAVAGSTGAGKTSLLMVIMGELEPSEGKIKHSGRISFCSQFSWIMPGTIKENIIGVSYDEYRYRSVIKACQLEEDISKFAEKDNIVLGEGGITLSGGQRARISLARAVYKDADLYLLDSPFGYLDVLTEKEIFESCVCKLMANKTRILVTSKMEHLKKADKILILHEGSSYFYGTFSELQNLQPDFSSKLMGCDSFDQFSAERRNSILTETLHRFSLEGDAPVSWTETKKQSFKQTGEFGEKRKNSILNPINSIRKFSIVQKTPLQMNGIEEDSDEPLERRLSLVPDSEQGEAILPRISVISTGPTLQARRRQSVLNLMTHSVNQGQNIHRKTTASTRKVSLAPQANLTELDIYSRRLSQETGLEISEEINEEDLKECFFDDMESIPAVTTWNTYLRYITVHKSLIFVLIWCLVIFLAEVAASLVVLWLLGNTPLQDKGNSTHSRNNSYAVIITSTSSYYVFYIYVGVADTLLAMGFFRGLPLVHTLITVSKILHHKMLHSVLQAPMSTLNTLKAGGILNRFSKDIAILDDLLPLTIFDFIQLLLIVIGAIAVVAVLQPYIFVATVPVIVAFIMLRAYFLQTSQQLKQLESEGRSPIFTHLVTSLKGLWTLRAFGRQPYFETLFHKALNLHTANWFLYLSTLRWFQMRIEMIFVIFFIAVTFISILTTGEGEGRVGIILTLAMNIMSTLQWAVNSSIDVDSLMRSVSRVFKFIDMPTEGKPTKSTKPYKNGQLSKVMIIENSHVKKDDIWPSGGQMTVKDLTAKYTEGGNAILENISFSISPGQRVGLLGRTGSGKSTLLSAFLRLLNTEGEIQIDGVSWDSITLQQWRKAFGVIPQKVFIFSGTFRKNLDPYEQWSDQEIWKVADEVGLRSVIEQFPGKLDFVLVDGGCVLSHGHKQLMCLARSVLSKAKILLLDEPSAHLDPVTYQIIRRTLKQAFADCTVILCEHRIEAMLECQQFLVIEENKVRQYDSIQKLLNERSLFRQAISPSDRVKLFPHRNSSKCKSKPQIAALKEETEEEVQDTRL

Compound | EC50 [µM]
COc1nc(C(=O)NCC(C)(O)C(F)(F)F)c(N)cc1C(F)(F)F (racemic) [Example 4, 3-Amino-6-methoxy-5-trifluoromethyl-pyridine-2-carboxylic acid (3,3,3-trifluoro-2-hydroxy-2-methyl-propyl)-amide] | 0.076
COc1nc(C(=O)NC[C@@](C)(O)C(F)(F)F)c(N)cc1C(F)(F)F (single isomer, unassigned) [Example 6] | 0.426
CC(O)(CNC(=O)c1nc(-c2ccc(Cl)cc2Cl)c(C(F)(F)F)cc1N)C(F)(F)F (single isomer, unassigned) [Example 9, 3-Amino-6-(2,4-dichloro-phenyl)-5-trifluoromethyl-pyridine-2-carboxylic acid (3,3,3-trifluoro-2-hydroxy-2-methyl-propyl)-amide] | 0.09
CC(O)(CNC(=O)c1nc(-c2ccc(Cl)cc2Cl)c(C(F)(F)F)cc1N)C(F)(F)F (single isomer, unassigned) [Example 10, 3-Amino-6-(2,4-dichloro-phenyl)-5-trifluoromethyl-pyridine-2-carboxylic acid (3,3,3-trifluoro-2-hydroxy-2-methyl-propyl)-amide] | 0.112
Cc1ccc(-c2nc(C(=O)NCC(C)(O)C(F)(F)F)c(N)cc2C(F)(F)F)cn1 (single isomer, unassigned) [Example 15, 5-Amino-6′-methyl-3-trifluoromethyl-[2,3′]bipyridinyl-6-carboxylic acid (3,3,3-trifluoro-2-hydroxy-2-methyl-propyl)-amide] | 0.051
C[C@@](O)(CNC(=O)c1nc(Br)c(C(F)(F)F)cc1N)C(F)(F)F [Example 2, 3-Amino-6-bromo-5-trifluoromethyl-pyridine-2-carboxylic acid ((R)-3,3,3-trifluoro-2-hydroxy-2-methyl-propyl)-amide] | 0.015
C[C@](O)(CNC(=O)c1nc(Br)c(C(F)(F)F)cc1N)C(F)(F)F [Example 3, 3-Amino-6-bromo-5-trifluoromethyl-pyridine-2-carboxylic acid ((S)-3,3,3-trifluoro-2-hydroxy-2-methyl-propyl)-amide] | 0.055
C[C@](O)(CNC(=O)c1nc(-c2ccc(F)cc2)c(C(F)(F)F)cc1N)C(F)(F)F [Example 7, 3-Amino-6-(4-fluoro-phenyl)-5-trifluoromethyl-pyridine-2-carboxylic acid ((S)-3,3,3-trifluoro-2-hydroxy-2-methyl-propyl)-amide] | 0.04
C[C@@](O)(CNC(=O)c1nc(-c2ccc(F)cc2)c(C(F)(F)F)cc1N)C(F)(F)F [Example 8, 3-Amino-6-(4-fluoro-phenyl)-5-trifluoromethyl-pyridine-2-carboxylic acid ((R)-3,3,3-trifluoro-2-hydroxy-2-methyl-propyl)-amide] | 0.06
CC(C)(O)CNC(=O)c1nc(-c2ccc(F)cc2)c(C(F)(F)F)cc1N [Example 11, 3-Amino-6-(4-fluoro-phenyl)-5-trifluoromethyl-pyridine-2-carboxylic acid (2-hydroxy-2-methyl-propyl)-amide] | 0.037
COc1nc(C(=O)NCC(O)C(F)(F)F)c(N)cc1C(F)(F)F (centres unmarked) [Example 12, 3-Amino-6-methoxy-5-trifluoromethyl-pyridine-2-carboxylic acid (3,3,3-trifluoro-2-hydroxy-propyl)-amide] | 0.035
Cc1ccc(-c2nc(C(=O)NCC(O)(C(F)(F)F)C(F)(F)F)c(N)cc2C(F)(F)F)cn1 [Example 14, 5-Amino-6′-methyl-3-trifluoromethyl-[2,3′]bipyridinyl-6-carboxylic acid (3,3,3-trifluoro-2-hydroxy-2-trifluoromethyl-propyl)-amide] | 0.115
C[C@](O)(CNC(=O)c1nc(C(F)(F)F)c(C(F)(F)F)cc1N)C(F)(F)F [Example 16, 3-Amino-5,6-bis-trifluoromethyl-pyridine-2-carboxylic acid ((S)-3,3,3-trifluoro-2-hydroxy-2-methyl-propyl)-amide] | 0.008
C[C@@](O)(CNC(=O)c1nc(C(F)(F)F)c(C(F)(F)F)cc1N)C(F)(F)F [Example 17, 3-Amino-5,6-bis-trifluoromethyl-pyridine-2-carboxylic acid ((R)-3,3,3-trifluoro-2-hydroxy-2-methyl-propyl)-amide] | 0.01
